Laboratory results as given in patent US9241920B2, “Inhibition of c-Myc ubiquitination to prevent cancer initiation and progression” (NEW YORK UNIVERSITY, priority 2011, dated 2016).

Key:
[1] = test system: human CD34+ cells (CML patients) depleted of Fbw7; experiment: Apoptosis (annexin V staining) of Fbw7-depleted human CML CD34+ cells; type: cell-based; conditions: human CD34+ cells after depletion of Fbw7; decrease of c-Myc activity
Procedure: Viable bone marrow mononuclear cells from two treatment-naïve patients in the chronic phase of CML were obtained from AllCells. To examine the role of FBW7 in the maintenance of LICs for human CML, bone marrow mononuclear cells were transfected with 300 nM FBW7 siRNAs (Stealth Select RNAi siRNA, Invitrogen) by electroporation with the use of an Amaxa Nucleofector II device (Lonza) according to the manufacture's instructions. The transfected cells were then stained with antibodies to human CD34 (8G12), CD3 (SK7), CD16 (3G8), CD19 (SJ25C1), CD20 (L27), CD14 (MφP9), and CD56 (NCAM16.2) (BD Biosciences). CD3, CD16, CD19, CD20, CD14, and CD56 were used as lineage markers. CD34^+Lin^− cells were purified by FACS and cocultured with OP-9 cells for 7 days. For assays of apoptosis, cells were collected after 7 days of culture, stained for cell surface markers, further incubated for 15 min with annexin V (BD Biosciences) and then analyzed by flow cytometry.

[2] = test system: human CD34+Lin- cells (CML patients) depleted of Fbw7; experiment: Colony forming unit assay of Fbw7-depleted human CML CD34+ cells; type: cell-based; conditions: human CD34+ cells after depletion of Fbw7; decrease of c-Myc activity
Procedure: For the in vitro CFU experiments, mice received 5 intra-peritoneal (IP) injections of poly(I:C) at a dose of 20 ug/g, and LSK cells were purified 10 days post poly(I:C). LSK cells were purified and infected with Bcr-Abl-NGFR or Bcr-Abl-GFP retrovirus as described above. Bcr-Abl^+ lineage negative cells were sorted 72 hours after the first infection and 1000 cells were seeded into cytokine-supplemented methylcellulose medium (MethoCult 3434, Stem Cell Technologies). Colonies were counted 7 days after they were seeded and 4000 cells were re-plated and colonies were counted after another 7 days (14 days total). For human CFU assay, cells were collected after 7 days of culture, and 1×10^3 CD34^+Lin^− cells were transferred to Methocult medium (MethoCult GF H4435, StemCell Technologies). The number of colonies was counted 1 week after plating.
Viable bone marrow mononuclear cells from two treatment-naïve patients in the chronic phase of CML were obtained from AllCells. […] For assays of apoptosis, cells were collected after 7 days of culture, stained for cell surface markers, further incubated for 15 min with annexin V (BD Biosciences) and then analyzed by flow cytometry.

## CCc1ccc(/C=C2/SC(=S)NC2=O)cc1 [10058-F4]
[1]
  apoptosis of Fbw7-depleted cells: rescued cells from apoptosis
[2]
  colony forming ability of Fbw7-depleted cells: rescued
